Non-standard residues stand in square brackets, D forms with d. Residues, ends and D or L forms follow the SMILES beside them. ξ: configuration not given here. *: point of attachment. ξQ = NC(=O)CCC(N)C(=O)O; Cbz = O=C(OCc1ccccc1)*
Structure (SMILES) | melting point [°C]
CCOC(=O)C1=C(C)NN=C(CC)C1c1ccccc1 (centres undefined) | 109
Cc1cccc(S(=O)(=O)n2c(CCCC(=O)O)cc3nc(Cl)ccc32)c1 | 165
O=C(NS(=O)(=O)NCCc1ccccc1)OCc1ccccc1 | 120 to 121
CCc1ccc2oc(=O)c([N+](=O)[O-])c(O)c2c1 | 114 to 115
C=CCN(C)C(=S)Nc1ccccc1CC(=O)OC | 46 to 47
CCc1nc2cc(N(C)C)c(Cl)cc2n1-c1ccc(CCNC(=O)NS(=O)(=O)c2ccc(C)cc2)cc1 | 108 to 114
O=C(CCCCCNC(=O)CCc1ccco1)NO | 127 to 128
CC(=O)c1ccc(OCCCBr)c(Br)c1 | 83 to 84
COc1ccc(S(=O)(=O)Nc2cccnc2Nc2ccc(OC(=O)C(C)(C)C)cc2)cc1 | 188 to 189
CCN1CCN2C(=O)c3ccccc3C12c1ccc(Cl)cc1 (centres undefined) | 114
CCN(CC)C(=O)C(C)Oc1cc(-c2ccccc2)nc2ccccc12 (centres undefined) | 124
COc1ccc(C=Cc2ccc(C)cc2)c(Cl)c1 | 144 to 145
NS(=O)(=O)NC(=O)NCCCCC1CCSS1 (centres undefined) | 123 to 125
C#CC1(O)CCC2(C)C(CCC3C2CCC2(C)C(C(=O)CO)CCC32)C1 (centres undefined) | 156 to 157
NC(=S)/C=C1\CCc2ccc(F)cc21 | 178 to 179
CNC(=O)C1CC(=O)N(Cc2ccccc2)C1 (centres undefined) | 82.5 to 83
Cc1cccc(Sc2cncc3sc(C(N)=O)cc23)c1 | 171 to 173
COc1ccc(/C=C(/C#N)c2c(F)cccc2F)cc1OC1CCCC1 | 79.1 to 81
Cn1cc(C(=O)O)c(=O)c2cc3cc(F)c(N4CCNC(c5cccs5)C4)cc3nc21 (racemic) | 268 to 270
c1ccc(C2=Nc3ccccc3-n3ccc4cccc2c43)cc1 | 128 to 136
CNc1cc(OC)c(C(=O)NC2CCN(Cc3ccccc3)C2)cc1Cl (centres undefined) | 101 to 102
COC1CCC2(C)C(CCC3C2CCC2(C)C(C(C)=O)CCC32)C1 (centres undefined) | 125 to 126
ClCCCOc1ccc(-n2cncn2)cc1 | 81 to 82

Structure (SMILES) | melting point [°C]
O=C(Nc1ccccc1)NC(Cc1ccccc1)C(=O)Nc1c(F)cc(F)cc1F (centres undefined) | 225 to 233
CCc1cc(SCc2ccc(-c3ccccc3C#N)cc2)n2nccc2n1 | 153 to 155
CCc1c2n(c3ccccc13)C(=O)C(Cc1ncn(C(c3ccccc3)(c3ccccc3)c3ccccc3)c1C)CC2 (centres undefined) | 78 to 82
O=c1ccn(-c2cc3[nH]c(=O)c(=O)[nH]c3cc2[N+](=O)[O-])cc1[N+](=O)[O-] | > 300
O=C(Nc1cccc2c(-c3ccccc3)c([N+](=O)[O-])oc12)C(F)(F)F | 194 to 196
O=C(OC1CCCCC1)c1ncn2c1[C@@H]1CCCN1C(=O)c1c(Br)cccc1-2 | 167 to 168
O=Cc1ccc2ccn(C(c3ccccc3)c3cccc(C=Cc4ccc5ccccc5n4)c3)c2c1 (centres undefined) | 75
COC(=O)c1ccc2oc3c(c(=O)c2c1)CCC3=Cc1ccc(C)cc1C | 212 to 214
O=C(Nc1c[nH]nc1C(=O)NCCNc1ccccn1)c1ccccn1 | 260 to 262
CC(C)c1cccc(C(C)C)c1NC(=O)CN1CCN(CCSc2nc3cccc(S(C)(=O)=O)c3o2)CC1 | 125 to 128
CCCC(CC(=O)NC(=O)OC(C)(C)C)Nc1ccc(C)cc1 (centres undefined) | 63 to 64
C[C@@H]1C(=O)C[C@H]2C[C@@H]1OO[C@@]2(C)/C=C/c1cc(C(F)(F)F)nc2c(Cl)cc(Cl)cc12 | 196
N#Cc1ccc(C=S)c(-c2ccccc2)c1 | 88
COc1ccc(S(=O)(=O)N2C(=O)C(O[Si](C)(C)C)(c3ccccc3F)c3cc(Cl)ccc32)c(OC)c1 (centres undefined) | 184 to 186
CC(C)[C@H](O)C(=O)NCCc1ccccc1 | 100
C=CCNc1ccc(N(CC(O)CO)CC(O)CO)cc1[N+](=O)[O-] (centres undefined) | 154 to 158
CN1CCCN(c2ccc(/C=C/c3cc(/C=C/c4ccc5cc[nH]c5c4)[nH]n3)c(Br)c2)CC1 | 132 to 136
NCc1ccc2c(c1)C(=O)c1ccccc1C2=O | 170 to 178
Cc1oc(-c2ccc(C(F)(F)F)cc2)cc1CC(=O)O | 123 to 125
COC(=O)CNC(=O)CNC(=O)C(CCC(N)=O)NC(=O)OCc1ccccc1 (stereo not drawn) (Cbz-[ξQ]-Gly-Gly-OMe) | 129 to 134
CS(=O)(=O)c1ccc(-c2cc(S(C)(=O)=O)nn2-c2ccc(F)cc2)cc1 | 209 to 210
O=S(CCCCF)CCCCCOc1ccc(C2=C(c3ccccc3)CCCc3cc(O)ccc32)cc1 (centres undefined) | 233
O=C(O)C(O)Cn1nnnc1S (centres undefined) | 143 to 146

Structure (SMILES) | melting point [°C]
CCCCCS(=O)(=O)NC(=O)CCc1cc(OCCCC)nn1Cc1ccc(Cl)cc1Cl | 104 to 105
CC(C)(C)OC(=O)N[C@@H]1Cc2ccccc2C[C@H]1O (relative stereo) | 149 to 150
Cc1cc(C2=CCN(CCCC(O)c3ccccc3)CC2)on1 (centres undefined) | 108 to 109
CC(CC(F)(F)C(F)(F)C(F)(F)C(F)(F)CC(C)C(=O)O)C(=O)O (centres undefined) | 166 to 168
Cc1c(Cc2ccccc2)c(=O)n(C)c2cc(OCc3nnn[nH]3)cc(OCc3nnn[nH]3)c12 | 250 to 253
CC(=O)c1cccc(C(=O)Nc2c[nH]nc2C(=O)NCCC#N)c1 | 205 to 208
CNC(=O)NS(=O)(=O)c1cc2c(cc1OC)OC(C)(C)C(NC(=O)c1cc(Cl)ccc1OC)C2 (centres undefined) | 248
CC(C)(OCc1nn(Cc2ccccc2)c2ccccc12)C(=O)NNc1ccccc1 | 124 to 125
OCCOc1ccc(C2CNCCN2)cc1 (racemic) | 141
CCCOc1ccccc1C1=NC(=O)C2=NC(SC)=NC2=N1 | 245 to 247
CCCNC(=O)C(CC)Cc1ccc2c(c1)c(Cc1ccc(C(=O)O)cc1OC)cn2CCC (centres undefined) | 85 to 97
CC(C)c1nc2ccccn2c(=O)c1Br | 204 to 207
CN(Cc1cc2c3c(c1)c(=O)c(C(=O)NCc1ccc(F)cc1)cn3CC(=O)N2C)C[C@@H](O)c1cccnc1 | 108 to 110
CN1CC(C(O)C(O)C(O)CO)OC1=C(C#N)C=C1Nc2ccccc2C1=O (centres undefined) | 237
COc1ccc2[nH]c(C(=O)Nc3cc(NC(=O)OCc4ccccc4)c4ccccc4c3CCOC(C)=O)cc2c1 | 98 to 110
COC(=O)c1ccc(NC(=O)c2ccccc2OC(C)C)c(C(=O)OC)c1 | 107 to 110
CN1C(=O)Cn2c(nnc2C(F)(F)F)-c2cc(Cl)ccc21 | 186 to 187
O=C1Nc2ccccc2OCC1N1C(=O)c2ccccc2C1=O (centres undefined) | 188 to 193
Cn1cc(-c2cccc(N3Cc4cc(C5CC5)sc4C3=O)c2CO)cc(Nc2ccncn2)c1=O | 140 to 141
CN(CC#N)S(=O)(=O)c1cc(-n2c(=O)cc(C(F)(F)F)n(C)c2=O)c(F)cc1Cl | 155 to 157
COc1nncc(-c2ccccc2)n1 | 73 to 74
CCOC(=O)c1cnc(-c2cc3cccc(N(C)S(=O)(=O)c4cccs4)c3n2COC)s1 | 142 to 143
COc1cc(OC)cc(N2CCC(c3c(N)nc(N)[nH]c3=O)CC2)c1 | > 250

Structure (SMILES) | melting point [°C]
CCN(CC)C(=O)C(C)(C)n1cc(C)c(-c2ccccc2)n1 | 50 to 52
CN1C2=C(CSC2)C(=O)Nc2cc(Cl)c(Cl)cc21 | 281 to 283
NC(=O)N(O)CCCCNC(=O)c1cccc(Oc2ccccc2)c1 | 131 to 133
O=C(OCCc1ccc([N+](=O)[O-])cc1)C1Cc2c(ccc3[nH]ccc23)N1 (centres undefined) | 192 to 194
CCCc1nc(NCCOC(C)=O)nc(N2CCOCC2)n1 | 94 to 95
CCCCSC(=S)N1Cc2[nH]c3ccccc3c2CC1C(=O)O (centres undefined) | 163 to 164
OCCn1cc(-c2ccccc2)c(OCc2ccccc2)n1 | 115
C[C@H]1CCCC(C)(C)[C@@H]1[C@H](O)c1ccc(F)c(F)c1 | 43.3 to 45.8
CC1(C)Oc2ccsc2C(N2CCCC2=O)C1OC(=O)c1ccccc1 (centres undefined) | 130 to 132
CCOC(=O)c1ccc(-c2ccc(OCCCNC3CC3)c(-c3ccc4c(c3)C(C)(C)CCC4(C)C)c2)cc1 | 141
CC1SCCCNC1=O (centres undefined) | 192 to 193
Oc1ccc(Oc2ccc(I)cc2)cc1 | 119 to 121
O=C(N[C@@H]1CN(C2CCCCC2)C[C@H]1O)c1ccccc1 (relative stereo) | 154 to 156
Ic1cnc2c(c1)NCCN2 | 126 to 128
Cc1ccc(S(=O)(=O)NC(=O)OCCc2ccc(-n3c(C4CCCCC4)nc4c(C)nc(C)cc43)cc2)cc1 | 168
N#Cc1ccc(-c2ccc(-c3ccoc3)cc2)cc1 | 199 to 203
CC(C)(C)c1cccc(C(C)(C)C)c1OS(C)(=O)=O | 83
c1ccc(-c2nc3c([nH]2)CCCC3CN2CCN(c3ncccn3)CC2)cc1 (centres undefined) | 200 to 202
CN1CCC(=C2c3ccccc3CC(O)c3ccccc32)CC1 (centres undefined) | 205 to 206
CC1=C(C(=O)OCCN(C)Cc2ccccc2)C(c2cccc3ncc(-c4ccc(C)cc4)cc23)C2=C(COC2=O)N1 (centres undefined) | 173 to 175
